Test results as given in the supplement of paper PMC9663587.

Tests used:
YKL-5-124 = compound: C=CC(=O)Nc1ccc(C(=O)Nc2[nH]nc3c2CN(C(=O)N[C@H](CN(C)C)c2ccccc2)C3(C)C)cc1 [YKL-5-124]; experiment: increase in dead-cell fraction, 72 h; higher = more death;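 further: breast cancer cell lines in 384-well plates, stained with Hoechst plus LIVE/DEAD far red dye and imaged, cells above an LDR intensity threshold counted dead, Hoechst-negative corpses included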
BSJ-03-123 = compound: CC(=O)c1c(C)c2cnc(Nc3ccc(N4CCN(CCOCCOCCOCCNC(=O)COc5cccc6c5C(=O)N(C5CCC(=O)NC5=O)C6=O)CC4)cn3)nc2n(C2CCCC2)c1=O [BSJ-03-123]; experiment: as above
[1] = compound: CC(=O)c1c(C)c2cnc(Nc3ccc(N4CCNCC4)cn3)nc2n(C2CCCC2)c1=O; experiment: as above
[2] = compound: CCN1CCN(Cc2ccc(Nc3ncc(F)c(-c4cc(F)c5nc(C)n(C(C)C)c5c4)n3)nc2)CC1; experiment: as above
Neratinib/HKI272 [3] = compound: T1, CCOc1cc2ncc(C#N)c(Nc3ccc(OCc4ccccn4)c(Cl)c3)c2cc1NC(=O)/C=C/CN(C)C [Neratinib/HKI272]; experiment: as above
[4] = compound: CCc1cnn2c(NCc3ccc[n+]([O-])c3)cc(N3CCCC[C@H]3CCO)nc12; experiment: as above
LEE011/Ribociclib = compound: CN(C)C(=O)c1cc2cnc(Nc3ccc(N4CCNCC4)cn3)nc2n1C1CCCC1 [LEE011/Ribociclib]; experiment: as above
THZ531 = compound: CN(C)C/C=C/C(=O)Nc1ccc(C(=O)N2CCC[C@@H](Nc3ncc(Cl)c(-c4c[nH]c5ccccc45)n3)C2)cc1 [THZ531]; experiment: as above
THZ1 [5] = compound: T2, CN(C)C/C=C/C(=O)Nc1ccc(C(=O)Nc2cccc(Nc3ncc(Cl)c(-c4c[nH]c5ccccc45)n3)c2)cc1 [THZ1]; experiment: as above
Flavopiridol = compound: CN1CC[C@H](c2c(O)cc(O)c3c(=O)cc(-c4ccccc4Cl)oc23)[C@H](O)C1 [Flavopiridol]; experiment: as above
Neratinib/HKI272 [6] = compound: T1, Neratinib/HKI272; experiment: GR value, 72 h; higher = faster growth (1 = untreated, <0 = killing);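 further: breast cancer and non-malignant breast epithelial lines, nine half-log doses, viable cells counted by Hoechst and LIVE/DEAD dye imaging versus time-zero plates and DMSO controls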
THZ1 [7] = compound: T2, THZ1; experiment: as above

SUM190PT
increase in dead-cell fraction (YKL-5-124; 0.001 µM): 0.0072
increase in dead-cell fraction (YKL-5-124; 0.003162 µM): 0.0099
increase in dead-cell fraction (YKL-5-124; 0.01 µM): 0.0098
increase in dead-cell fraction (YKL-5-124; 0.03162 µM): 0.0132
increase in dead-cell fraction (YKL-5-124; 0.1 µM): 0.005
increase in dead-cell fraction (YKL-5-124; 0.3162 µM): 0.0169
increase in dead-cell fraction (YKL-5-124; 1 µM): 0.0033
increase in dead-cell fraction (YKL-5-124; 3.162 µM): 0.0008
increase in dead-cell fraction (YKL-5-124; 10 µM): 0.244
increase in dead-cell fraction (BSJ-03-123; 0.001 µM): 0.0016
increase in dead-cell fraction (BSJ-03-123; 0.003162 µM): -0.0004
increase in dead-cell fraction (BSJ-03-123; 0.01 µM): 0.0082
increase in dead-cell fraction (BSJ-03-123; 0.03162 µM): 0.018
increase in dead-cell fraction (BSJ-03-123; 0.1 µM): 0.0114
increase in dead-cell fraction (BSJ-03-123; 0.3162 µM): 0.0142
increase in dead-cell fraction (BSJ-03-123; 1 µM): 0.0139
increase in dead-cell fraction (BSJ-03-123; 3.162 µM): 0.0169
increase in dead-cell fraction (BSJ-03-123; 10 µM): 0.243
increase in dead-cell fraction ([1]; 0.0003162 µM): -0.0078
increase in dead-cell fraction ([1]; 0.001 µM): -0.0072
increase in dead-cell fraction ([1]; 0.003162 µM): -0.0095
increase in dead-cell fraction ([1]; 0.01 µM): 0.0012
increase in dead-cell fraction ([1]; 0.03162 µM): -0.0013
increase in dead-cell fraction ([1]; 0.1 µM): 0.0119
increase in dead-cell fraction ([1]; 0.3162 µM): 0.0131
increase in dead-cell fraction ([1]; 1 µM): 0.0095
increase in dead-cell fraction ([1]; 3.162 µM): 0.0058
increase in dead-cell fraction ([2]; 0.001 µM): 0.001
increase in dead-cell fraction ([2]; 0.003162 µM): 0.0059
increase in dead-cell fraction ([2]; 0.01 µM): 0.0009
increase in dead-cell fraction ([2]; 0.03162 µM): 0.0041
increase in dead-cell fraction ([2]; 0.1 µM): 0.0078
increase in dead-cell fraction ([2]; 0.3162 µM): 0.0015
increase in dead-cell fraction ([2]; 1 µM): -0.0004
increase in dead-cell fraction ([2]; 3.162 µM): 0.0076
increase in dead-cell fraction ([2]; 10 µM): 0.32
increase in dead-cell fraction (Neratinib/HKI272 [3]; 0.0003162 µM): -0.0031
increase in dead-cell fraction (Neratinib/HKI272 [3]; 0.001 µM): -0.0024
increase in dead-cell fraction (Neratinib/HKI272 [3]; 0.003162 µM): -0.0097
increase in dead-cell fraction (Neratinib/HKI272 [3]; 0.01 µM): 0.0037
increase in dead-cell fraction (Neratinib/HKI272 [3]; 0.03162 µM): -0.0082
increase in dead-cell fraction (Neratinib/HKI272 [3]; 0.1 µM): 0.0008
increase in dead-cell fraction (Neratinib/HKI272 [3]; 0.3162 µM): 0.0036
increase in dead-cell fraction (Neratinib/HKI272 [3]; 1 µM): 0.0415
increase in dead-cell fraction (Neratinib/HKI272 [3]; 3.162 µM): 0.0395
increase in dead-cell fraction ([4]; 0.0001 µM): 0.0034
increase in dead-cell fraction ([4]; 0.0003162 µM): 0.0047
increase in dead-cell fraction ([4]; 0.001 µM): -0.0024
increase in dead-cell fraction ([4]; 0.003162 µM): -0.0088
increase in dead-cell fraction ([4]; 0.01 µM): -0.0098
increase in dead-cell fraction ([4]; 0.03162 µM): 0.201
increase in dead-cell fraction ([4]; 0.1 µM): 0.449
increase in dead-cell fraction ([4]; 0.3162 µM): 0.477
increase in dead-cell fraction ([4]; 1 µM): 0.49
increase in dead-cell fraction (LEE011/Ribociclib; 0.001 µM): 0.0052
increase in dead-cell fraction (LEE011/Ribociclib; 0.003162 µM): 0.0077
increase in dead-cell fraction (LEE011/Ribociclib; 0.01 µM): 0.0145
increase in dead-cell fraction (LEE011/Ribociclib; 0.03162 µM): 0.0159
increase in dead-cell fraction (LEE011/Ribociclib; 0.1 µM): 0.0213
increase in dead-cell fraction (LEE011/Ribociclib; 0.3162 µM): 0.0196
increase in dead-cell fraction (LEE011/Ribociclib; 1 µM): 0.0239
increase in dead-cell fraction (LEE011/Ribociclib; 3.162 µM): 0.0464
increase in dead-cell fraction (LEE011/Ribociclib; 10 µM): 0.006
increase in dead-cell fraction (THZ531; 0.0001 µM): -0.0012
increase in dead-cell fraction (THZ531; 0.0003162 µM): 0.0006
increase in dead-cell fraction (THZ531; 0.001 µM): 0.0192
increase in dead-cell fraction (THZ531; 0.003162 µM): 0.0068
increase in dead-cell fraction (THZ531; 0.01 µM): -0.0033
increase in dead-cell fraction (THZ531; 0.03162 µM): 0.0143
increase in dead-cell fraction (THZ531; 0.1 µM): 0.0893
increase in dead-cell fraction (THZ531; 0.3162 µM): 0.636
increase in dead-cell fraction (THZ531; 1 µM): 0.44
increase in dead-cell fraction (THZ1 [5]; 0.0001 µM): -0.0051
increase in dead-cell fraction (THZ1 [5]; 0.0003162 µM): -0.0051
increase in dead-cell fraction (THZ1 [5]; 0.001 µM): -0.003
increase in dead-cell fraction (THZ1 [5]; 0.003162 µM): 0.0428
increase in dead-cell fraction (THZ1 [5]; 0.01 µM): 0.193
increase in dead-cell fraction (THZ1 [5]; 0.03162 µM): 0.338
increase in dead-cell fraction (THZ1 [5]; 0.1 µM): 0.269
increase in dead-cell fraction (THZ1 [5]; 0.3162 µM): 0.106
increase in dead-cell fraction (THZ1 [5]; 1 µM): 0.13
increase in dead-cell fraction (Flavopiridol; 0.0001 µM): -0.0004
increase in dead-cell fraction (Flavopiridol; 0.0003162 µM): -0.0016
increase in dead-cell fraction (Flavopiridol; 0.001 µM): -0.0005
increase in dead-cell fraction (Flavopiridol; 0.003162 µM): -0.0011
increase in dead-cell fraction (Flavopiridol; 0.01 µM): 0.0056
increase in dead-cell fraction (Flavopiridol; 0.03162 µM): 0.0019
increase in dead-cell fraction (Flavopiridol; 0.1 µM): 0.0046
increase in dead-cell fraction (Flavopiridol; 0.3162 µM): 0.0223
increase in dead-cell fraction (Flavopiridol; 1 µM): 0.082
GR value (Neratinib/HKI272 [6]; 0.0003162 µM): 1.06 GR
GR value (Neratinib/HKI272 [6]; 0.001 µM): 1.04 GR
GR value (Neratinib/HKI272 [6]; 0.003162 µM): 1.06 GR
GR value (Neratinib/HKI272 [6]; 0.01 µM): 0.999 GR
GR value (Neratinib/HKI272 [6]; 0.03162 µM): 1.08 GR
GR value (Neratinib/HKI272 [6]; 0.1 µM): 0.956 GR
GR value (Neratinib/HKI272 [6]; 0.3162 µM): 0.915 GR
GR value (Neratinib/HKI272 [6]; 1 µM): 0.658 GR
GR value (Neratinib/HKI272 [6]; 3.162 µM): 0.429 GR
GR value (THZ1 [7]; 0.0001 µM): 1.05 GR
GR value (THZ1 [7]; 0.0003162 µM): 0.839 GR
GR value (THZ1 [7]; 0.001 µM): 0.923 GR
GR value (THZ1 [7]; 0.003162 µM): 0.842 GR
GR value (THZ1 [7]; 0.01 µM): 0.0733 GR
GR value (THZ1 [7]; 0.03162 µM): -0.46 GR
GR value (THZ1 [7]; 0.1 µM): -0.462 GR
GR value (THZ1 [7]; 0.3162 µM): -0.331 GR
GR value (THZ1 [7]; 1 µM): -0.467 GR
